One test addresses T1, human TTK (Homo sapiens, UniProt P33981).
T1 construct: Active TTK was purchased from Invitrogen as an amino terminal GST fusion of full length human TTK; purchased Invitrogen
T1 sequence (P33981 1-857): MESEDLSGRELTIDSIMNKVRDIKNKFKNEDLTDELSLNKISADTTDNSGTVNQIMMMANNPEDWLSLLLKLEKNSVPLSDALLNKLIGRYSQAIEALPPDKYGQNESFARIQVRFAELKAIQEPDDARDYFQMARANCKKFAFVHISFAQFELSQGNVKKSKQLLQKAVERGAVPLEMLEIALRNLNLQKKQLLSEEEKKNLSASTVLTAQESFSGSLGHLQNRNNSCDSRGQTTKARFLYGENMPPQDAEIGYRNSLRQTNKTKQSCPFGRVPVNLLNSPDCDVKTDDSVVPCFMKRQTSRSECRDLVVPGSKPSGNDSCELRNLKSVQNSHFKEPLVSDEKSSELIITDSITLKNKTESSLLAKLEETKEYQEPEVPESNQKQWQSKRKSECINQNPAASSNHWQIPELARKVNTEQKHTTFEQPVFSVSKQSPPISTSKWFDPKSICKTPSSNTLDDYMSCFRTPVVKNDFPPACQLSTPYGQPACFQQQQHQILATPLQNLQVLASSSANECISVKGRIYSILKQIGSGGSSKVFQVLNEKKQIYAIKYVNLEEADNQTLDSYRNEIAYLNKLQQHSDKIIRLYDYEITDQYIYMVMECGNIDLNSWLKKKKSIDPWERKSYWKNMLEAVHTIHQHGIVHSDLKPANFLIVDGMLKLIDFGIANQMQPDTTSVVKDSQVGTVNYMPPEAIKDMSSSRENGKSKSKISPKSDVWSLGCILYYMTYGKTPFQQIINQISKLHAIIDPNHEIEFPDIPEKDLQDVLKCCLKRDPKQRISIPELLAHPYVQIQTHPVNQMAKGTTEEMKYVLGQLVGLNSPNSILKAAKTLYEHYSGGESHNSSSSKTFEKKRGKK
As to the kind of experiment: TTK inhibition assay (indirect ELISA). It is filed as biochemical. As to the method: Active TTK was purchased from Invitrogen as an amino terminal GST fusion of full length human TTK.
TTK activity was measured using an indirect ELISA detection system.
Compounds were pre-incubated in the presence of enzyme for 5 minutes prior to addition of ATP and the activity remaining quantified using the above described activity assay. The % Inhibition of a compound was determined using the following formula; % Inhibition=100×(1−(experimental value−background value)/(high activity control−background value)). The IC50 value was determined using a non-linear 4 point logistic curve fit (XLfit4, IDBS) with the formula; (A+(B/(1+((x/C)^D)))), where A=background value, B=range, C=inflection point, D=curve fit parameter.
For orientation: An ELISA detects its analyte on a solid surface through an enzyme-linked reagent.

The subject of test [1] is colon cancer cells (HCT116). As to the kind of experiment: Cancer cell line growth inhibition, Sulforhodamine B assay, HCT116. It is filed as cell-based. As to conditions: Homo sapiens, HCT-116, HCT116 colon cancer cell line; read-out: Cancer Cell Line GI50 Range HCT116. As to the method:
(§1) Breast cancer cells (MDA-MB-231 and MDA-MB-468), colon cancer cells (HCT116) and ovarian cancer cells (PA-1 and OVCAR-3) were seeded (1000 to 4000 in 80 μl per well depending on the cell growth rate) into 96 well plates 24 hours before compound overlay. Compounds were prepared as 10 mM stock solutions in 100% DMSO which were diluted with DMEM (Dulbecco's Modified Eagle's Medium) cell growth Medium (Invitrogen, Burlington, ON, Canada) containing 10% FBS (Fetal Bovine Serum) to concentrations ranging from 50 nM to 250 μM. Aliquots (20 μl) from each concentration were overlaid to 80 μl of the pre-seeded cells in the 96 well plates to make final concentrations of 10 nM to 50 μM. The cells were cultured for 5 days before the Sulforhodamine B assay (SRB) was performed to determine the compound's cell growth inhibition activity.
(§2) Sulforhodamine B (purchased from Sigma, Oakville, ON, Canada) is a water-soluble dye that binds to the basic amino acids of the cellular proteins. Thus, colorimetric measurement of the bound dye provides an estimate of the total protein mass that is related to the cell number. the cells are fixed in situ by gently aspirating off the culture media and adding 50 μl ice cold 10% Trichloroacetic Acid (TCA) per well and incubate at 4° C. for 30-60 min, The plates are washed with H2O five times and allowed to air dry for 5 min. Addition of 50 μl 0.4% (w/v) SRB solution in 1% (v/v) acetic acid to each well and incubation for 30 min at RT completes the staining reaction. Following staining, plates are washed four times with 1% acetic acid to remove unbound dye and then allowed to air dry for 5 min. The stain is solubilized with 100 μl of 10 mM Tris pH 10.5 per well. Absorbance is read at 570 nm.
(§3) The percentage (%) of relative growth inhibition was calculated by comparing to DMSO treated only cells (100%). GI50's were determined for compounds with cytotoxic activity. The GI50 was calculated using GraphPad PRISM software (GraphPad Software, Inc., San Diego, Calif., USA).
(§4) In Table 1 below, GI50 value ranges for compound examples against breast cancer cell lines (MDA-MB-468), colon cancer cell lines (HCT116) and ovarian cancer cell lines (PA-1) are given.
In Table 2 below, GI50 value ranges for compound examples against breast cancer cell lines (MDA-MB-231), colon cancer cell lines (HCT116) and ovarian cancer cell lines (PA-1) are given.
(§5) In Table 3 below, GI50 value ranges for compound examples against breast cancer cell lines (MDA-MB-468), colon cancer cell lines (HCT116) and ovarian cancer cell lines (OVCAR-3) are given.
On the technique in general: In SRB staining, fixed cells bind dye roughly in proportion to their protein.

Test [2] relates to breast cancer cells (MDA-MB-468). As to the kind of experiment: Cancer cell line growth inhibition, Sulforhodamine B assay, MDA-MB-468. The format is cell-based. The conditions noted are these: Homo sapiens, read-out: Cancer Cell Line GI50 Range MDA-MB-468. As to the method:
as §1, §2, §3, §4, §5

Test [3] relates to ovarian cancer cells (OVCAR-3). Put plainly: Cancer cell line growth inhibition, Sulforhodamine B assay, OVCAR-3. It is filed as cell-based. The conditions noted are these: Homo sapiens, read-out: Cancer Cell Line GI50 Range OVCAR-3. As to the method:
as §1, §2, §3, §5

Where [4] appears, read: 100 μM ATP, read-out: TTK IC50 Range.
Setting [5] is: MDA-MB-468, MDA-MB-468 breast cancer cell line.
The mark [6] stands for this setting: OVCAR-3, OVCAR-3 ovarian cancer cell line.
Setting [7] is: MDA-MB-468 breast cancer cell line.
[8] abbreviates: OVCAR-3 ovarian cancer cell line.
Where [9] appears, read: Table 2, 16 μM ATP (asterisk), read-out: TTK IC50 Range.

SMILES strings stand for the structures. Like-named read-outs stand apart in the source and are kept apart here.

On to `Cc1cc(-c2cnn3c(NCC4(F)CCNCC4)cc(NC4CCCC4)nc23)ccc1C(=O)NC1CC1` [Example C169], for which the IC50 – broadly, the midpoint of a concentration-inhibition curve – at human TTK (setting [4]) was < 100 nM. Also, the 50% growth inhibitory concentration (GI50) (as a rule, the concentration giving 50% growth inhibition) in test [1] is 100 to 500 nM; in test [2] (setting [5]), > 500 nM; in test [3] (setting [6]) it was > 500 nM.
With `Cc1cc(-c2cnn3c(NCC4CCOCC4)cc(N[C@H](CO)C4CCOCC4)nc23)ccc1C(=O)NC1CC1` [Example C89], at human TTK (setting [4]), the IC50 was < 100 nM. The GI50 in test [1] is 100 to 500 nM; in test [2] (setting [5]), > 500 nM; in test [3] (setting [6]), > 500 nM.
`Cc1cc(-c2cnn3c(NC[C@H]4C[C@H](O)C4)cc(NC4CCCC4)nc23)ccc1C(=O)NC1CC1` [Example C172]: the IC50 at human TTK (setting [4]) was < 100 nM. The GI50 in test [1], in test [2] (setting [5]) and in test [3] (setting [6]) was ≤ 100 nM each time.
Consider `Cc1cc(-c2cnn3c(NCC4CCOCC4)cc(N[C@H]4CCCC[C@@H]4O)nc23)ccc1C(=O)NC1CC1` [Example C125], for which the IC50 at human TTK (setting [4]) is < 100 nM. Moreover, the results for the GI50 in test [1], in test [2] (setting [5]) and in test [3] (setting [6]) were ≤ 100 nM, ≤ 100 nM and 100 to 500 nM, respectively.
As for `Cc1cc(-c2cnn3c(NCC(C)C)cc(N[C@H]4CCCC[C@H]4O)nc23)ccc1C(=O)NC1CC1` [Example C157], the IC50 at human TTK (setting [4]) is < 100 nM. Moreover, the GI50 in test [1], in test [2] (setting [5]) and in test [3] (setting [6]) was ≤ 100 nM each time.
`CC[C@H](Nc1cc(NCC2CCOCC2)n2ncc(-c3ccc(C(=O)NC4CC4)c(C)c3)c2n1)C(C)(C)O` [Example C127]: the IC50 on human TTK (setting [4]) was < 100 nM. Further, the results for the GI50 in test [1], in test [2] (setting [5]) and in test [3] (setting [6]) were ≤ 100 nM, 100 to 500 nM and 100 to 500 nM, respectively.
As to `Cc1cc(-c2cnn3c(NCCCn4ccnc4)cc(N[C@H]4CCCC[C@H]4O)nc23)ccc1C(=O)NC1CC1` [Example C132], the IC50 on human TTK (setting [4]) was < 100 nM. Also, the GI50 in test [1] was > 500 nM; in test [2] (setting [5]), 100 to 500 nM; in test [3] (setting [6]), > 500 nM.
For `Cc1cc(-c2cnn3c(NC[C@H]4C[C@](C)(O)C4)cc(Oc4cccnc4)nc23)ccc1C(=O)NC1CC1` [Example C135], the results for the GI50 in test [1], in test [2] (setting [7]) and in test [3] (setting [8]) were ≤ 100 nM, ≤ 100 nM and 100 to 500 nM, respectively.
Take `Cc1cc(-c2cnn3c(NC[C@H]4C[C@@](C)(O)C4)cc(Oc4cccnc4)nc23)ccc1C(=O)NC1CC1` [Example C43, N-cyclopropyl-4-(7-((((1s,3s)-3-hydroxy-3-methylcyclobutyl)methyl)amino)-5-(pyridin-3-yloxy)pyrazolo[1,5-a]pyrimidin-3-yl)-2-methylbenzamide]: the GI50 in test [1], in test [2] (setting [7]) and in test [3] (setting [8]) was ≤ 100 nM each time.
As to `Cc1cc(-c2cnn3c(NCC4CCOCC4)cc(N4CC(O)C4)nc23)ccc1C(=O)NC1CC1` [Example C69], the IC50 on human TTK (setting [4]) was 100 to 500 nM.
With `CC(C)NC(=O)c1ccc(-c2cnn3c(NCC4CCOCC4)nc(Oc4ccccc4)nc23)cc1` [Example C2], the IC50 at human TTK (16 μM ATP (Sigma cat# A7699), read-out: TTK IC50 Range (denoted with an asterisk)) was in the range of 100 to 500 nM.
Take `Cc1cc(-c2cnn3c(NCCN4CCOCC4)cc(Nc4ccccc4)nc23)ccc1C(=O)NC1CC1` [Example C60]: the IC50 at human TTK (setting [4]) is < 100 nM.
Still for that read-out and setting: under `COCCNc1cc(NC2CCCC2)nc2c(-c3ccc(C(=O)NC4CC4)c(C)c3)cnn12` [Example C80] stands < 100 nM; under `Cc1cc(-c2cnn3c(NCC4CCOCC4)cc(N4C5CCC4COC5)nc23)ccc1C(=O)NC1CC1` [Example C112], < 100 nM.
With `CC[C@H](Nc1cc(NCC2CCOCC2)n2ncc(-c3ccc(C(=O)NC4CC4)c(C)c3)c2n1)[C@H](C)O` [Example B30, N-cyclopropyl-4-(5-(((2S,3S)-2-hydroxypentan-3-yl)amino)-7-(((tetrahydro-2H-pyran-4-yl)methyl)amino)pyrazolo[1,5-a]pyrimidin-3-yl)-2-methylbenzamide], the IC50 at human TTK (setting [9]) is < 100 nM.
Turning to `Cc1cc(-c2cnn3c(NC[C@H]4CCCO4)cc(NC4CCOCC4)nc23)ccc1C(=O)NC1CC1` [Example C63], the IC50 at human TTK (setting [4]) is < 100 nM.
Consider `Cc1cc(-c2cnn3c(NCCN4CCOCC4)cc(Oc4cccc(N5CCOCC5)c4)nc23)ccc1C(=O)NC1CC1` [Example C91], for which the IC50 at human TTK (setting [4]) was < 100 nM.
For `Cc1cc(-c2cnn3c(NCCO)cc(NC4CCCC4)nc23)ccc1C(=O)NC1CC1` [Example C81], the IC50 at human TTK (setting [4]) was < 100 nM.
On the same count and under the same terms, under `Cc1cc(-c2cnn3c(NCCCS(C)(=O)=O)cc(NC4CCOCC4)nc23)ccc1C(=O)NC1CC1` [Example C140] stands < 100 nM.
For the compound `Cc1cc(-c2cnn3c(NCC4CCOCC4)cc(N4CC[C@@H](O)C4)nc23)ccc1C(=O)NC1CC1` [Example C142], the IC50 on human TTK (setting [4]) lay within 100 to 500 nM.
Same read-out and setting: next, `Cc1cc(-c2cnn3c(NC[C@@H]4CCCO4)cc(NC4CCOCC4)nc23)ccc1C(=O)NC1CC1` [Example C65]: < 100 nM; `Cc1cc(-c2cnn3c(NCC4CCOCC4)cc(N4CCC(O)CC4)nc23)ccc1C(=O)NC1CC1` [Example C67]: < 100 nM.
Same read-out and setting: next, `Cc1cc(-c2cnn3c(NCC4(CO)CCOCC4)cc(NC4CCOCC4)nc23)ccc1C(=O)NC1CC1` [Example C93]: < 100 nM; `Cc1cc(-c2cnn3c(NCC4(N(C)C)CCOCC4)cc(Oc4ccccc4)nc23)ccc1C(=O)NC1CC1` [Example C106]: 100 to 500 nM.
On the same count and under the same terms, next, `Cc1cc(-c2cnn3c(NCC4CCOCC4)cc(N4CC[C@H](CO)C4)nc23)ccc1C(=O)NC1CC1` [Example C166]: < 100 nM.
Take `COC(C)(C)CNc1cc(N[C@@H](C(C)C)C(C)(C)O)nc2c(-c3ccc(C(=O)NC4CC4)c(C)c3)cnn12` [Example C128]: the IC50 on human TTK (setting [4]) was < 100 nM.
On to `Cc1cc(-c2cnn3c(NCC(C)(C)O)cc(NC4CCOCC4)nc23)ccc1C(=O)NC1CC1` [Example B32, N-cyclopropyl-4-(7-((2-hydroxy-2-methylpropyl)amino)-5-((tetrahydro-2H-pyran-4-yl)amino)pyrazolo[1,5-a]pyrimidin-3-yl)-2-methylbenzamide], for which the IC50 at human TTK (setting [9]) was < 100 nM.
